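Interpolation was linear, between the two tested concentrations surrounding the appropriate level; five concentrations were tested over 48 hours in 96-well plates. GI50: concentration for 50% inhibition of growth. TGI: concentration producing complete growth inhibition.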
Assays:
Test in all cases: growth of human tumour cells (NCI), 48 h
ACHN renal = system: ACHN renal
NCI-H23 lung = system: NCI-H23 lung
TK-10 renal = system: TK-10 renal
NCI-H226 lung = system: NCI-H226 lung
K-562 leukemia = system: K-562 leukemia
SW-620 colon = system: SW-620 colon
SK-MEL-28 melanoma = system: SK-MEL-28 melanoma
HCT-116 colon = system: HCT-116 colon
KM12 colon = system: KM12 colon
OVCAR-5 ovarian = system: OVCAR-5 ovarian

| Structure (SMILES) | GI50 (ACHN renal) [µM] | TGI (ACHN renal) [µM] | GI50 (NCI-H23 lung) [µM] | TGI (NCI-H23 lung) [µM] | GI50 (TK-10 renal) [µM] | TGI (TK-10 renal) [µM] | GI50 (NCI-H226 lung) [µM] | TGI (NCI-H226 lung) [µM] | GI50 (K-562 leukemia) [µM] | TGI (K-562 leukemia) [µM] | GI50 (SW-620 colon) [µM] | TGI (SW-620 colon) [µM] | GI50 (SK-MEL-28 melanoma) [µM] | TGI (SK-MEL-28 melanoma) [µM] | GI50 (HCT-116 colon) [µM] | TGI (HCT-116 colon) [µM] | GI50 (KM12 colon) [µM] | TGI (KM12 colon) [µM] | GI50 (OVCAR-5 ovarian) [µM] | TGI (OVCAR-5 ovarian) [µM] |
| --- | --- | --- | --- | --- | --- | --- | --- | --- | --- | --- | --- | --- | --- | --- | --- | --- | --- | --- | --- | --- |
| Cc1cc(C)c(C#N)c(Sc2nc(C)c([N+](=O)[O-])c(C)c2C#N)n1 | 1.75 | 3.38 | 2.87 | 10.4 | 3.27 | 8.28 | 2.99 | 10.5 | 2.9 | > 100 | 2.07 | 4.65 | 3.12 | 12.4 | 1.94 | 4.18 | 3.98 | 19 | 4.03 | 41.1 |
| NC1c2ccccc2Nc2ccccc21 |  | 24.6 |  | 17.5 |  | 29.8 |  | 27.9 |  | 14.5 |  | 14.4 |  | 14.2 |  | 13.6 |  | 17 |  | 25.6 |
| O=C(O)/C(Cc1cn[nH]n1)=N\O |  | > 100 |  | > 100 |  | > 100 |  | > 100 |  | > 100 |  | > 100 |  | > 100 |  | > 100 |  | > 100 |  | > 100 |
| CSc1nc2nc3c(nc2c(=O)n1C)C(=O)c1ccccc1C3=O | 0.299 | 1.04 | 0.142 | 0.422 | 0.766 | 2.1 | 0.193 | 0.461 | 0.272 | 1.32 | 0.252 | 0.738 | 0.188 | 0.452 | 0.149 | 1.13 | 0.278 | 0.994 | 0.199 | 0.355 |
| CC(=O)N1CCN(CCNC(=O)n2cc(-c3ccncc3)c(-c3cc(O)cc(Cl)c3)n2)CC1 | 8.26 | 61.9 | 17.1 | 46 | 21.8 | 50.1 | 16.7 | 40.5 | 4.41 | 29.4 | 10.9 | 26.9 | 3.92 | 16.8 | 5.47 | 18.8 | 14 | 34.4 | 23.8 | 63.2 |
| CCC[CH2][Sn]([CH2]CCC)([S]C#N)[S]C#N | 1.24 | 2.48 | 0.609 | 2.14 | 1.11 | 2.4 | 1.77 | 3.25 | 0.215 | 1.35 | 0.378 | 1.54 | 0.753 | 2.15 | 1.45 | 3.11 | 1.45 | 3.11 | 1.56 | 2.96 |
| CC(C)OC(=S)Nc1ccc(Cl)c(/C=N/OC(C)(C)C)c1 |  | 28.7 |  | 39.4 |  | 17.1 |  | 34.2 |  | 43 |  | 32 |  | 44.8 |  | 29.9 |  | 17.6 |  | 30.8 |
| C=C1C(O)C2CC(C)(CO)C(=O)C2=C(CC(C)C)C12CC2 (stereo not given) | 93.8 | > 100 | > 100 | > 100 | 52.9 | > 100 | > 100 | > 100 | 31.9 | > 100 | 62.3 | > 100 | > 100 | > 100 | 38.7 | > 100 | 50.6 | > 100 | > 100 | > 100 |

— PubChem BioAssay (NCI)
